Tests used:
Assay in all cases: Pre-emergence test
Type in all cases: in vivo
[1] = test system: Digitaria sanguinalis (DIGSA); conditions: 3 weeks after treatment
Experimental: (§1) To evaluate their herbicidal activity, compounds according to the invention are tested using a representative range of plants: […] The pre-emergence tests involve spraying a liquid formulation of the compound onto the soil in which the seeds of the plant species mentioned above has recently been sown. The soil used in the tests is a prepared horticultural loam. […] In these tests untreated sown soil are used as controls.

[2] = test system: Ambrosia artemisifolia (AMBEL); conditions: 3 weeks after treatment
Experimental: as §1

[3] = test system: Lolium multiflorum (LOLMU); conditions: 3 weeks after treatment
Experimental: as §1

[4] = test system: Echinochloa crus-galli (ECHCG); conditions: 3 weeks after treatment
Experimental: as §1

[5] = test system: Matricaria inodora (MATIN); conditions: 3 weeks after treatment
Experimental: as §1

[6] = test system: Cassia obtusifolia (CASOB); conditions: 3 weeks after treatment
Experimental: as §1

[7] = test system: Alopecurus myosuroides (ALOMY); conditions: 3 weeks after treatment
Experimental: as §1

[8] = test system: Zea mays (ZEAMX); conditions: crop (corn), 3 weeks after treatment
Experimental: as §1

[9] = test system: Setaria viridis (SETVI); conditions: 3 weeks after treatment
Experimental: as §1

[10] = test system: Lamium purpureum (LAMPU); conditions: 3 weeks after treatment
Experimental: as §1

[11] = test system: Stellaria media (STEME); conditions: 3 weeks after treatment
Experimental: as §1

[12] = test system: Galium aparine (GALAP); conditions: 3 weeks after treatment
Experimental: as §1

[13] = test system: Ipomoea hederacea (IPOHE); conditions: 3 weeks after treatment
Experimental: as §1

## Cn1nc(C(F)(F)F)cc1Oc1cccc(-n2ccc(C(F)(F)F)n2)n1 [Comparison]
[1]; 0.013 kg/ha
  Assessment rating DIGSA (pre-emergence application): 9 (9 - Complete kill)
[1]; 0.025 kg/ha
  Assessment rating DIGSA (pre-emergence application): 9 (9 - Complete kill)
[1]; 0.100 kg/ha
  Assessment rating DIGSA (pre-emergence application): 9 (9 - Complete kill)
[1]; 0.400 kg/ha
  Assessment rating DIGSA (pre-emergence application): 9 (9 - Complete kill)
[2]; 0.013 kg/ha
  Assessment rating AMBEL (pre-emergence application): 0 (0 - No effect)
[2]; 0.025 kg/ha
  Assessment rating AMBEL (pre-emergence application): 4 (4 - Injury)
[2]; 0.100 kg/ha
  Assessment rating AMBEL (pre-emergence application): 6 (6 - Herbicidal effect)
[2]; 0.400 kg/ha
  Assessment rating AMBEL (pre-emergence application): 8 (8 - Approaching complete kill)
[3]; 0.013 kg/ha
  Assessment rating LOLMU (pre-emergence application): 3 (3 - Moderate effect)
[3]; 0.025 kg/ha
  Assessment rating LOLMU (pre-emergence application): 5 (5 - Definite injury)
[3]; 0.100 kg/ha
  Assessment rating LOLMU (pre-emergence application): 8 (8 - Approaching complete kill)
[3]; 0.400 kg/ha
  Assessment rating LOLMU (pre-emergence application): 8 (8 - Approaching complete kill)
[4]; 0.013 kg/ha
  Assessment rating ECHCG (pre-emergence application): 0 (0 - No effect)
[4]; 0.025 kg/ha
  Assessment rating ECHCG (pre-emergence application): 2 (2 - Slight effect)
[4]; 0.100 kg/ha
  Assessment rating ECHCG (pre-emergence application): 4 (4 - Injury)
[4]; 0.400 kg/ha
  Assessment rating ECHCG (pre-emergence application): 7 (7 - Good herbicidal effect)
[5]; 0.013 kg/ha
  Assessment rating MATIN (pre-emergence application): 2 (2 - Slight effect)
[5]; 0.025 kg/ha
  Assessment rating MATIN (pre-emergence application): 7 (7 - Good herbicidal effect)
[5]; 0.100 kg/ha
  Assessment rating MATIN (pre-emergence application): 9 (9 - Complete kill)
[5]; 0.400 kg/ha
  Assessment rating MATIN (pre-emergence application): 9 (9 - Complete kill)
[6]; 0.013 kg/ha
  Assessment rating CASOB (pre-emergence application): 0 (0 - No effect)
[6]; 0.025 kg/ha
  Assessment rating CASOB (pre-emergence application): 0 (0 - No effect)
[6]; 0.100 kg/ha
  Assessment rating CASOB (pre-emergence application): 2 (2 - Slight effect)
[6]; 0.400 kg/ha
  Assessment rating CASOB (pre-emergence application): 5 (5 - Definite injury)
[7]; 0.013 kg/ha
  Assessment rating ALOMY (pre-emergence application): 0 (0 - No effect)
[7]; 0.025 kg/ha
  Assessment rating ALOMY (pre-emergence application): 1 (1 - Trace effect)
[7]; 0.100 kg/ha
  Assessment rating ALOMY (pre-emergence application): 4 (4 - Injury)
[7]; 0.400 kg/ha
  Assessment rating ALOMY (pre-emergence application): 8 (8 - Approaching complete kill)
[8]; 0.013 kg/ha
  Assessment rating ZEAMX (pre-emergence application): 0 (0 - No effect)
[8]; 0.025 kg/ha
  Assessment rating ZEAMX (pre-emergence application): 0 (0 - No effect)
[8]; 0.100 kg/ha
  Assessment rating ZEAMX (pre-emergence application): 1 (1 - Trace effect)
[8]; 0.400 kg/ha
  Assessment rating ZEAMX (pre-emergence application): 2 (2 - Slight effect)
[9]; 0.013 kg/ha
  Assessment rating SETVI (pre-emergence application): 2 (2 - Slight effect)
[9]; 0.025 kg/ha
  Assessment rating SETVI (pre-emergence application): 2 (2 - Slight effect)
[9]; 0.100 kg/ha
  Assessment rating SETVI (pre-emergence application): 8 (8 - Approaching complete kill)
[9]; 0.400 kg/ha
  Assessment rating SETVI (pre-emergence application): 9 (9 - Complete kill)
[10]; 0.013 kg/ha
  Assessment rating LAMPU (pre-emergence application): 1 (1 - Trace effect)
[10]; 0.025 kg/ha
  Assessment rating LAMPU (pre-emergence application): 6 (6 - Herbicidal effect)
[10]; 0.100 kg/ha
  Assessment rating LAMPU (pre-emergence application): 8 (8 - Approaching complete kill)
[10]; 0.400 kg/ha
  Assessment rating LAMPU (pre-emergence application): 8 (8 - Approaching complete kill)
[11]; 0.013 kg/ha
  Assessment rating STEME (pre-emergence application): 0 (0 - No effect)
[11]; 0.025 kg/ha
  Assessment rating STEME (pre-emergence application): 8 (8 - Approaching complete kill)
[11]; 0.100 kg/ha
  Assessment rating STEME (pre-emergence application): 8 (8 - Approaching complete kill)
[11]; 0.400 kg/ha
  Assessment rating STEME (pre-emergence application): 9 (9 - Complete kill)
[12]; 0.013 kg/ha
  Assessment rating GALAP (pre-emergence application): 0 (0 - No effect)
[12]; 0.025 kg/ha
  Assessment rating GALAP (pre-emergence application): 1 (1 - Trace effect)
[12]; 0.100 kg/ha
  Assessment rating GALAP (pre-emergence application): 2 (2 - Slight effect)
[12]; 0.400 kg/ha
  Assessment rating GALAP (pre-emergence application): 8 (8 - Approaching complete kill)
[13]; 0.013 kg/ha
  Assessment rating IPOHE (pre-emergence application): 0 (0 - No effect)
[13]; 0.025 kg/ha
  Assessment rating IPOHE (pre-emergence application): 1 (1 - Trace effect)
[13]; 0.100 kg/ha
  Assessment rating IPOHE (pre-emergence application): 3 (3 - Moderate effect)
